According to patent US20240083885A1, “COMPOSITIONS AND METHODS FOR INHIBITING M PRO PROTEASE ACTIVITY AND FOR PREVENTING AND TREATING SARS-COV-2 INFECTION” (priority 2020, published 2024):
Where “and” joins values, the source holds several entries; their conditions need not be identical. Identical values can stand only once. Like-named read-outs stand apart in the source and are kept apart here.

Experiments:
[1] = molecular target: T1, SARS-CoV-2 M^pro (Severe acute respiratory syndrome coronavirus 2 (2019-nCoV) (SARS-CoV-2), UniProt P0DTD1); experiment: biochemical
[2] = molecular target: SARS-CoV M^pro (Severe acute respiratory syndrome coronavirus (SARS-CoV), UniProt P0C6X7); experiment: biochemical
[3] = molecular target: SARS-CoV-2 papain-like protease (PL^pro) (Severe acute respiratory syndrome coronavirus 2 (2019-nCoV) (SARS-CoV-2), UniProt P0DTD1); experiment: biochemical
[4] = molecular target: T1, SARS-CoV-2 M^pro; experiment: biochemical; format: binding
[5] = molecular target: T1, SARS-CoV-2 M^pro; format: binding; conditions: for mass modification (mass shift) of M^pro adduct: native mass spectrometry, covalent adduct
[6] = system: SARS-CoV-2; experiment: microbe, parasite or virus in culture; format: cell-based; conditions: Severe acute respiratory syndrome coronavirus 2, Vero C1008; read-out: antiviral EC50 against SARS-CoV-2 in Vero E6 cells
[7] = molecular target: T1, SARS-CoV-2 M^pro; experiment: biochemical; remark: listed apart in the source
[8] = molecular target: T1, SARS-CoV-2 M^pro; experiment: cell-based
[9] = system: SARS-CoV-2; experiment: microbe, parasite or virus in culture; format: cell-based; conditions: Severe acute respiratory syndrome coronavirus 2; read-out: antiviral EC50 against SARS-CoV-2 in Caco2-hACE2 cells
[10] = in vitro; conditions: African green monkey, CC50 in Vero E6 cells
[11] = in vitro; conditions: human, CC50 in Calu-3 cells
[12] = system: Calu-3 cells; conditions: human, 5 days
[13] = molecular target: calpain I (Homo sapiens (Human), UniProt P07384); experiment: Host protease FRET-based enzymatic assay: calpain I; format: biochemical
Description: (§1) Enzymatic reactions against host proteases (Calpain I, Cathepisn K, Cathespsin L, Caspase-3 and Trypisn) were carried out as previously described (see, Xia, Z.; et al., ACS Pharmacol. Transl. Sci. 2021). Cathepsin B assay reaction was carried out as follows: Cathepsin B (catalog no. CTB-H5222) was diluted into 100 nM final concentration in a buffer containing 20 mM sodium acetate pH5.5, 1 mM EDTA and 2 mM DTT and the mixture was incubated for 30 min at 30° C. Activated Cathepsin B was further diluted to 500 pm in the reaction buffer (100 mM MES pH6.0, 1 mM EDTA, 2 mM DTT and 0.01% TWEEN 20).

[14] = molecular target: T2, Cathepsin B (Homo sapiens (Human), UniProt P07858); experiment: Host protease FRET-based enzymatic assay: cathepsin B; format: biochemical
Description: as §1

[15] = molecular target: cathepsin K (Homo sapiens (Human), UniProt P43235); format: biochemical
[16] = molecular target: T3, Cathepsin L (Homo sapiens (Human), UniProt P07711); experiment: Host protease FRET-based enzymatic assay: cathepsin L; format: biochemical
Description: The cathepsin L enzymatic assay was carried out as follows: human liver cathepsin L (EMD Millipore 219402) was activated by incubating at reaction buffer (20 mM sodium acetate, 1 mM EDTA and 5 mM DTT pH5.5) for 30 min at 30° C. Upon activation, the assay was assembled in 96-well plates with 100 μl of 300 pM cathepsin L protein in cathepsin L reaction buffer. Then 1 μl testing compound at various concentrations was added to each well and incubated at 30° C. for 30 min. The enzymatic reaction was initiated by adding 1 μl of 100 μM FRET substrate Z-Phe-Arg-AMC (the final substrate concentration is about 1 μM). The reaction was monitored in a Cytation 5 image reader with filters for excitation at 360/40 nm and emission at 460/40 nm at 30° C. for 1 hr. The IC50 values were calculated as described in above section.
as §1

[17] = molecular target: caspase-3 (Homo sapiens (Human), UniProt P42574); experiment: Host protease FRET-based enzymatic assay: caspase-3; format: biochemical
Description: as §1

[18] = system: trypsin; experiment: Host protease FRET-based enzymatic assay: trypsin; format: biochemical
[19] = Cytotoxicity in Vero E6 cells (neutral red uptake); conditions: African green monkey, CC50 in Vero E6 cells
[20] = system: SARS-CoV-2; experiment: microbe, parasite or virus in culture; format: cell-based; conditions: Severe acute respiratory syndrome coronavirus 2, Calu-3; read-out: antiviral EC50 against SARS-CoV-2 in Calu-3 cells
[21] = molecular target: T3, Cathepsin L; conditions: cited from earlier work
[22] = molecular target: T2, Cathepsin B; conditions: cited from earlier work
[23] = read-out: IC50 against SARS-CoV-2 M^pro
[24] = read-out: Additional off targets: Cathepsin B IC50

T3 sequence (P07711 114-333 limits assumed): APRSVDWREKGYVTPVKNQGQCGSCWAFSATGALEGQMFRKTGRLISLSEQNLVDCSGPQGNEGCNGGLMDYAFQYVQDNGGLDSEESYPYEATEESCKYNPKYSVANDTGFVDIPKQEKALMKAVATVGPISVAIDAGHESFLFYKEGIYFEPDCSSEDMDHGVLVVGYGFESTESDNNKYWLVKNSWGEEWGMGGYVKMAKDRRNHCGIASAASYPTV
cathepsin K, sequence (P43235 115-329 limits assumed): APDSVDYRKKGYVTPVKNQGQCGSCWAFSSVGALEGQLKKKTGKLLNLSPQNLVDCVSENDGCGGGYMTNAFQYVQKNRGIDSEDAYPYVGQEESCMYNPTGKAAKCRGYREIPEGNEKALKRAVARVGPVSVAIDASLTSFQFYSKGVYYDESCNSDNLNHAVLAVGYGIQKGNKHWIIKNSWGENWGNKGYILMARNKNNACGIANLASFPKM
caspase-3, sequence (P42574 29-175 limits assumed): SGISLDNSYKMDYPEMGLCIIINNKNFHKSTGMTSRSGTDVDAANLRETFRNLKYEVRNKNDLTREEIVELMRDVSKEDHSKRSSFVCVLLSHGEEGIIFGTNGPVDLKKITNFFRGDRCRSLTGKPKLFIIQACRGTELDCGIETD
caspase-3, sequence (P42574 176-277 limits assumed): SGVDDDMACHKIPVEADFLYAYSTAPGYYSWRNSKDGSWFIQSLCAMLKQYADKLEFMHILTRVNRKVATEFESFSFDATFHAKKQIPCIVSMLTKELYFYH

With C[C@H](NC(=O)C(c1cccnc1)N(C(=O)c1ccco1)c1ccc(-c2ccccc2)cc1)c1ccccc1 (single isomer, unassigned) [Compound 23R] the “change of IC50 with pre-incubation time” value [1] was “did not lead to significant changes of the IC50 value”, the IC50 ([1]; IC50 against SARS-CoV-2 M^pro) was 0.15 µM and 0.13 µM and the EC50 ([1]; SARS-COV-2 main protease enzymatic inhibition (separated diastereomers, printed as EC50)) was 150 nM. For the same compound, the IC50 ([1]; SARS-CoV-2 M^pro IC50 (μM)) was 0.15 ± 0.03 µM, the IC50 [2] was 270 ± 30 nM and the IC50 ([3]; IC50 against SARS-CoV-2 papain-like protease (PL^pro)) was greater than 20 µM. For the same compound, the IC50 ([3]; SARS-CoV-2 PL^pro IC50 (μM)) was greater than 60 µM, the Kd [4] was 9430 nM and the “binding to SARS-CoV-2 M^pro in native mass spectrometry” value [5] was “dose-dependent binding”.
For C[C@@H](CCc1ccccc1)NC(=O)[C@@H](c1cccnc1)N(C(=O)C(Cl)Cl)c1ccc(-c2ccccc2)cc1 (single isomer, unassigned) [Jun9-90-4R], the IC50 [1, 23] was 0.46 µM, the EC50 [6] was 1100 nM and the kinact/KI [7] was 867 M⁻¹ s⁻¹. For the same compound, the EC50 [8] was 1570 nM, the EC50 [9] was 1430 nM and the CC50 at 5 days [10] was greater than 100000 nM.
In the case of C[C@H](NC(=O)[C@H](c1cccnc1)N(C(=O)CCl)c1ccc(-n2cccc2)cc1)c1ccccc1 (stereo in doubt) [Jun9-57-3S], the IC50 [1, 23] is reported as 1.13 µM, the CC50 at 5 days [10] is reported as less than 11000 nM and the CC50 at 5 days [11] is reported as less than 2000 nM.
With C[C@H](NC(=O)C(c1cccnc1)N(C(=O)CCl)c1ccc(-c2ccccc2)cc1)c1ccccc1 (stereo partly drawn) [Jun9-54-1, 2-(N-{[1,1′-biphenyl]-4-yl}-2-chloroacetamido)-N-[(1S)-1-phenylethyl]-2-(pyridin-3-yl)acetamide] the IC50 [1, 23] was 0.17 µM, the CC50 [12] was less than 3500 nM and the CC50 at 5 days [11] was less than 2000 nM.
Compound O=C(NC1CCCCC1)C(c1cccnc1)N(C(=O)CCl)c1ccc(-c2ccccc2)cc1 (centres unmarked) [Jun9-55-2, N-([1,1′-biphenyl]-4-yl)-2-chloro-N-(2-(cyclohexylamino)-2-oxo-1-(pyridin-3-yl)ethyl)acetamide] has a CC50 at 5 days [10] of less than 11000 nM and a CC50 at 5 days [11] of less than 2000 nM.
Compound O=C(NC1CC1)C(c1cccnc1)N(C(=O)CCl)c1ccc(-c2ccccc2)cc1 (centres unmarked) [Jun9-57-2, N-([1,1′-biphenyl]-4-yl)-2-chloro-N-(2-(cyclopropylamino)-2-oxo-1-(pyridin-3-yl)ethyl)acetamide] has a CC50 at 5 days [10] of less than 11000 nM and a CC50 at 5 days [11] of less than 2000 nM.
Compound C[C@H](NC(=O)[C@@H](c1cccnc1)N(C(=O)CCl)c1ccc(-n2cccc2)cc1)c1ccccc1 [Jun9-57-3R, N-(4-(1H-pyrrol-1-yl)phenyl)-2-chloro-N-((R)-2-oxo-2-(((S)-1-phenylethyl)amino)-1-(pyridin-3-yl)ethyl)acetamide] has an IC50 [1, 23] of 0.05 µM, a CC50 at 5 days [10] of less than 11000 nM and a CC50 at 5 days [11] of less than 2000 nM.
Work on C[C@H](NC(=O)C(c1cnccn1)N(C(=O)CCl)c1ccc(-c2ccccc2)cc1)c1ccccc1 (stereo partly drawn) [Jun9-59-1, 2-(N-{[1,1′-biphenyl]-4-yl}-2-chioroacetamido)-N-[(1S)-1-phenylethyl]-2-(pyrazin-2-yl)acetamide] yielded a CC50 at 5 days [10] of less than 11000 nM and a CC50 at 5 days [11] of less than 2000 nM.
CC#CC(=O)N(c1ccc(-c2ccccc2)cc1)C(C(=O)N[C@@H](C)c1ccccc1)c1cccnc1 (stereo partly drawn) [Jun9-62-1, N-([1,1′-hiphenyl]-4-yl)-N-(2-oxo-2-(((S)-1-phenylethyl)amino)-1-(pyridin-3-yl)ethyl)but-2-ynamide] gave an IC50 [1, 23] of 1.15 µM, a CC50 at 5 days [10] of 18000 nM and a CC50 at 5 days [11] of 47800 nM.
For C[C@H](NC(=O)[C@@H](c1cccnc1)N(C(=O)C(Cl)Cl)c1ccc(-c2ccccc2)cc1)c1ccccc1 [Jun9-62-2R, N-([1,1′-biphenyl]-4-yl)-2,2-dichloro-N-((R)-2-oxo-2-(((S)-1-phenylethyl)amino)-1-(pyridin-3-yl)ethyl)acetamide], the “change of IC50 with pre-incubation time” value [1] was “longer pre-incubation time gave lower IC50 values”, the EC50 [6] was 900 nM and the EC50 [8] was 960 nM. For the same compound, the EC50 [9] was 2050 nM, the “inhibition of calpain I” value [13] was “did not show potent inhibition” and the “inhibition of cathepsin B” value [14] was “did not show potent inhibition”. For the same compound, the “inhibition of cathepsin K” value [15] was “did not show potent inhibition”, the “inhibition of cathepsin L (IC50)” value [16] was “did not show potent inhibition” and the “inhibition of caspase-3 (IC50)” value [17] was “did not show potent inhibition”. For the same compound, the “inhibition of trypsin (IC50)” value [18] was “did not show potent inhibition” and the CC50 at 5 days [19] was greater than 100000 nM.
For C[C@H](NC(=O)[C@@H](c1cccnc1)N(C(=O)C(Br)(Br)Br)c1ccc(-c2ccccc2)cc1)c1ccccc1 [Jun9-88-6R, N-([1,1′-biphenyl]-4-yl)-2,2,2-tribromo-N-((R)-2-oxo-2-(((S)-1-phenylethyl)amino)-1-(pyridin-3-yl)ethyl)acetamide], the IC50 [1, 23] was 0.08 µM, the EC50 [6] was 580 nM and the “mass modification (mass shift) of M^pro adduct” value (“mass modification (mass shift)” for short) [5] was 526 Da. For the same compound, the kinact/KI [7] was 7070 M⁻¹ s⁻¹, the EC50 [8] was 920 nM and the EC50 [9] was 2150 nM. The “inhibition of calpain I” value [13] was “did not show potent inhibition”, the “inhibition of cathepsin B” value [14] was “did not show potent inhibition” and the “inhibition of cathepsin K” value [15] was “did not show potent inhibition”. The IC50 [16] was 7370 nM, the “selectivity for inhibiting SARS-CoV-2 M^pro over cathepsin L” value [16] was 94 fold and the “inhibition of caspase-3 (IC50)” value [17] was “did not show potent inhibition”. The “inhibition of trypsin (IC50)” value [18] was “did not show potent inhibition” and the CC50 at 5 days [10] was 5480 nM.
With C[C@H](NC(=O)[C@@H](c1cccnc1)N(C(=O)C(Br)Br)c1ccc(-c2ccccc2)cc1)c1ccccc1 [Jun9-89-2R] the IC50 ([1]; IC50 against SARS-CoV-2 M^pro) was 0.08 µM, the “mass modification (mass shift)” value [5] was 526 Da and the CC50 at 5 days [10] was 8940 nM.
For C[C@H](NC(=O)[C@@H](c1cccnc1)N(C(=O)C(Cl)(Br)Br)c1ccc(-c2ccccc2)cc1)c1ccccc1 [Jun9-89-4R, N-([1,1′-biphenyl]-4-yl)-2,2-dibromo-2-chloro-N-((R)-2-oxo-2-(((S)-1-phenylethyl)amino)-1-(pyridin-3-yl)ethyl)acetamide], the IC50 [1, 23] was 0.05 µM, the “mass modification (mass shift)” value [5] was 481 Da and 561 Da and the CC50 at 5 days [10] was 8410 nM.
C[C@H](NC(=O)[C@@H](c1cccnc1)N(C(=O)C(Cl)Cl)c1ccc(-c2ccccc2)cc1)c1ccc(Br)cc1 [Jun9-90-3R] gave an IC50 [1, 23] of 0.3 µM, an EC50 [6] of 2070 nM and a kinact/KI [7] of 1540 M⁻¹ s⁻¹. For the same compound, the EC50 [8] was 910 nM, the EC50 [9] was 3240 nM and the EC50 [20] was 2000 nM. For the same compound, the CC50 at 5 days [10] was greater than 100000 nM.
In the case of C[C@@H](OC(C)(C)C)[C@H](NC(=O)OCc1ccccc1)C(=O)N[C@@H](CC1CCCCC1)C(=O)N[C@H](C=O)C[C@@H]1CCNC1=O [MPI8], the IC50 ([21]; read-out: Cathepsin L IC50) is given as 1.2 nM, the IC50 ([21]; read-out: IC50 cathepsin L (recent study)) is given as 230 nM and the IC50 [22, 24] is given as 230 nM. For the same compound, the IC50 ([22]; read-out: IC50 cathepsin B (recent study)) was 1.2 nM.
For PF-00835231, the IC50 ([21]; read-out: Cathepsin L IC50) is given as 146 nM and the IC50 [22, 24] is given as 1300 nM.
